Tests used:
Carbonic anhydrase 2 = Carbonic anhydrase 2 (Homo sapiens, UniProt P00918)
Carbonic anhydrase 4 = biological target: T1, Carbonic anhydrase 4 (Bos taurus, UniProt Q95323)
T1 sequence (Q95323 whole entry): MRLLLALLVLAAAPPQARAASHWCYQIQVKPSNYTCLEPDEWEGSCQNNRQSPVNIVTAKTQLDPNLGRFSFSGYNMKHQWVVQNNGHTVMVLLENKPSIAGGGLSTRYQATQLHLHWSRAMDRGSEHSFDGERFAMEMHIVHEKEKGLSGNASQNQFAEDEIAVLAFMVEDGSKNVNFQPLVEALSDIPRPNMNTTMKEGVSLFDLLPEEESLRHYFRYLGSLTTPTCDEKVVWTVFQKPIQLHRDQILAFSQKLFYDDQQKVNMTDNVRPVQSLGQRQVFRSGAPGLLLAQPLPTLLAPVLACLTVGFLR

Carbonic anhydrase 1 = Carbonic anhydrase 1 (Homo sapiens, UniProt P00915)
Chain of Carbonic anhydrase 1 (P00915 whole entry): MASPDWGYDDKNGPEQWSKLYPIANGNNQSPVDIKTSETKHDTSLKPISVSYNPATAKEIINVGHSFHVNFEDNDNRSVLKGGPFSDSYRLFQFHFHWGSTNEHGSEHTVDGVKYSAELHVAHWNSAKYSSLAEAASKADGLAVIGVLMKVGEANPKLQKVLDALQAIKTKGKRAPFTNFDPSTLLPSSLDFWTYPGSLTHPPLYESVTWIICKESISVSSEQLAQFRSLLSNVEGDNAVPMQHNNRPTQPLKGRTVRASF

| SMILES | Ki (Carbonic anhydrase 2) [nM] | Ki (Carbonic anhydrase 4) [nM] | Ki (Carbonic anhydrase 1) [nM] |
| --- | --- | --- | --- |
| COc1ccc(S(=O)(=O)N(Cc2ccccc2Cl)C(C)C(=O)NO)cc1 (centres undefined) | > 200 | > 200 | > 200 |
| COc1ccc(S(=O)(=O)NC(C)C(=O)NO)cc1 (centres undefined) | 35 | 30 | 32 |
| COc1ccc(S(=O)(=O)NC(CC(C)C)C(=O)NO)cc1 (centres undefined) | 5 | 39 | 50 |
| COc1ccc(S(=O)(=O)N(CC(=O)NO)Cc2ccccc2[N+](=O)[O-])cc1 | 170 | 140 | > 200 |
| Cc1ccc(S(=O)(=O)NO)cc1 | 70 | 127 | 51000 |
| O=C(CNS(=O)(=O)C(F)(F)C(F)(F)C(F)(F)C(F)(F)F)NO | 15 | 16 | 18 |
| CC(C)CC(C(=O)NO)N(Cc1ccccc1)S(=O)(=O)C(F)(F)C(F)(F)C(F)(F)C(F)(F)F (centres undefined) | 116 | 139 | 180 |
| COc1ccc(S(=O)(=O)NC(C(=O)NO)C(C)C)cc1 (centres undefined) | 39 | 38 | 33 |
| CC(=O)Nc1ccc(S(=O)(=O)NO)cc1 | 29 | 40 | 40000 |
| CC(C)C(C(=O)NO)N(Cc1ccccc1)S(=O)(=O)c1c(F)c(F)c(F)c(F)c1F (centres undefined) | 45 | 48 | 88 |
| O=C(CN(Cc1ccccc1)S(=O)(=O)c1c(F)c(F)c(F)c(F)c1F)NO | 36 | 42 | 90 |
| O=S(=O)(NO)c1ccc(I)cc1 | 13 | 45 | 15000 |
| O=S(=O)(NO)c1ccc(F)cc1 | 19 | 90 | 15000 |
| CC(C)CC(NS(=O)(=O)C(F)(F)C(F)(F)C(F)(F)C(F)(F)F)C(=O)NO (centres undefined) | 18 | 30 |  |
| COc1ccc(S(=O)(=O)N(Cc2ccc([N+](=O)[O-])cc2)C(C)C(=O)NO)cc1 (centres undefined) | > 200 | > 200 | > 200 |
| COc1ccc(S(=O)(=O)N(CC(=O)NO)Cc2ccccc2)cc1 | 120 | 145 | > 200 |
| COc1ccc(S(=O)(=O)N(Cc2ccccc2)C(CC(C)C)C(=O)NO)cc1 (centres undefined) | > 200 | 190 | > 200 |
| COc1ccc(S(=O)(=O)NO)cc1 | 51 | 110 | 68000 |
| O=S(=O)(NO)c1ccccc1 | 26 | 74 | 18000 |
| CC(C(=O)NO)N(Cc1ccccc1)S(=O)(=O)c1c(F)c(F)c(F)c(F)c1F (centres undefined) | 38 | 43 | 84 |
| COc1ccc(S(=O)(=O)N(Cc2ccccc2)C(C)C(=O)NO)cc1 (centres undefined) | 120 | 136 | 195 |

| SMILES | Ki (Carbonic anhydrase 2) [nM] | Ki (Carbonic anhydrase 4) [nM] | Ki (Carbonic anhydrase 1) [nM] |
| --- | --- | --- | --- |
| CC(C(=O)NO)N(Cc1ccccc1Cl)S(=O)(=O)C(F)(F)C(F)(F)C(F)(F)C(F)(F)F (centres undefined) | > 200 | > 200 | > 200 |
| O=S(=O)(NO)C(F)(F)C(F)(F)C(F)(F)C(F)(F)C(F)(F)C(F)(F)C(F)(F)C(F)(F)F | 9 | 21 | 1600 |
| COc1ccc(S(=O)(=O)NO)cc1N | 44 | 136 | 41000 |
| CC(NS(=O)(=O)c1c(F)c(F)c(F)c(F)c1F)C(=O)NO (centres undefined) | 8 | 10 | 7 |
| O=S(=O)(NO)c1ccc(Br)cc1 | 18 | 39 | 38000 |
| O=S(=O)(NO)C(F)(F)F | 30 | 16 | 20000 |
| O=[N+]([O-])c1ccccc1S(=O)(=O)NO | 5 | 13 | 15000 |
| CC(C(=O)NO)N(Cc1ccccc1)S(=O)(=O)C(F)(F)C(F)(F)C(F)(F)C(F)(F)F (centres undefined) | 92 | 107 | 121 |
| CC(C(=O)NO)N(Cc1ccccc1[N+](=O)[O-])S(=O)(=O)c1c(F)c(F)c(F)c(F)c1F (centres undefined) | 160 | > 200 | > 200 |
| Cc1cc(C)c(S(=O)(=O)NO)c(C)c1 | 62 | 156 | 72000 |
| CC(C)C(NS(=O)(=O)C(F)(F)C(F)(F)C(F)(F)C(F)(F)F)C(=O)NO (centres undefined) | 15 | 20 | 29 |
| CC(C)C(NS(=O)(=O)c1c(F)c(F)c(F)c(F)c1F)C(=O)NO (centres undefined) | 11 | 13 | 8 |
| Nc1ccc(S(=O)(=O)NO)cc1 | 37 | 55 | 62000 |
| CC(C(=O)NO)N(Cc1ccc([N+](=O)[O-])cc1)S(=O)(=O)C(F)(F)C(F)(F)C(F)(F)C(F)(F)F (centres undefined) | > 200 | > 200 | > 200 |
| O=C(CN(Cc1ccccc1[N+](=O)[O-])S(=O)(=O)c1c(F)c(F)c(F)c(F)c1F)NO | 74 | 49 | 127 |
| O=[N+]([O-])c1ccc(S(=O)(=O)NO)cc1Cl | 4 | 12 | 17000 |
| CN(C)S(=O)(=O)NO | 40 | 290 | 12000 |
| O=[N+]([O-])c1ccc(S(=O)(=O)NO)cc1 | 9 | 70 | 57000 |
| CC(C)C(C(=O)NO)N(Cc1ccccc1)S(=O)(=O)C(F)(F)C(F)(F)C(F)(F)C(F)(F)F (centres undefined) | 108 | 124 | 140 |
| O=S(=O)(NO)C(F)(F)C(F)(F)C(F)(F)C(F)(F)F | 15 | 27 | 1800 |
| CC(C(=O)NO)N(Cc1ccccc1Cl)S(=O)(=O)c1c(F)c(F)c(F)c(F)c1F (centres undefined) | > 200 | > 200 | > 200 |

| SMILES | Ki (Carbonic anhydrase 2) [nM] | Ki (Carbonic anhydrase 4) [nM] | Ki (Carbonic anhydrase 1) [nM] |
| --- | --- | --- | --- |
| O=S(=O)(NO)c1c(F)c(F)c(F)c(F)c1F | 0.8 | 13 | 30000 |
| CC(C)CC(C(=O)NO)N(Cc1ccccc1)S(=O)(=O)c1c(F)c(F)c(F)c(F)c1F (centres undefined) | 56 | 75 | 100 |
| O=[N+]([O-])c1cccc(S(=O)(=O)NO)c1 | 5 | 24 | 17000 |
| COc1ccc(S(=O)(=O)NCC(=O)NO)cc1 | 32 | 29 | 30 |
| O=C(CN(Cc1ccccc1)S(=O)(=O)C(F)(F)C(F)(F)C(F)(F)C(F)(F)F)NO | 85 | 100 | 105 |
| COc1ccc(S(=O)(=O)N(Cc2ccccc2[N+](=O)[O-])C(C)C(=O)NO)cc1 (centres undefined) | > 200 | > 200 | > 200 |
| O=S(=O)(NO)c1ccc(Cl)cc1 | 21 | 120 | 27000 |
| COc1ccc(S(=O)(=O)N(Cc2ccccc2)C(C(=O)NO)C(C)C)cc1 (centres undefined) | > 200 | 185 | > 200 |
| O=S(=O)(NO)c1cccc(C(F)(F)F)c1 | 1.1 | 16 | 33000 |
| CC(NS(=O)(=O)C(F)(F)C(F)(F)C(F)(F)C(F)(F)F)C(=O)NO (centres undefined) | 16 | 17 | 21 |
| O=C(CN(Cc1ccc([N+](=O)[O-])cc1)S(=O)(=O)C(F)(F)C(F)(F)C(F)(F)C(F)(F)F)NO | 118 | 136 | > 200 |
| CC(C(=O)NO)N(Cc1ccc([N+](=O)[O-])cc1)S(=O)(=O)c1c(F)c(F)c(F)c(F)c1F (centres undefined) | > 200 | > 200 | > 200 |
| CC(C(=O)NO)N(Cc1ccccc1[N+](=O)[O-])S(=O)(=O)C(F)(F)C(F)(F)C(F)(F)C(F)(F)F (centres undefined) | > 200 | > 200 | > 200 |
| O=C(CN(Cc1ccc([N+](=O)[O-])cc1)S(=O)(=O)c1c(F)c(F)c(F)c(F)c1F)NO | 107 | 130 | 150 |
| CC(C)CC(NS(=O)(=O)c1c(F)c(F)c(F)c(F)c1F)C(=O)NO (centres undefined) | 11 | 19 | 10 |
| O=S(=O)(Cc1ccccc1)NO | 190 | 460 | 19000 |
| O=C(CNS(=O)(=O)c1c(F)c(F)c(F)c(F)c1F)NO | 8 | 10 | 7 |
| O=C(O)c1ccccc1S(=O)(=O)NO | 0.9 | 12 | 25000 |
| O=S(=O)(NO)C(Cl)(Cl)Cl | 150 | 210 | 23000 |
| CS(=O)(=O)NO | 4.7 | 56 |  |
